Data published in ChEMBL document CHEMBL1121684, “Selective and potent beta 2-adrenoceptor agents within the tetrahydroisoquinoline class: effect of methyl substitution at the benzylic carbon of the 1-(3,4,5-trimethoxybenzyl) group of trimetoquinol” (J Med Chem, 1981).

Columns and labels:
[1] = test system: Beta-1 adrenergic receptor (Cavia porcellus); details: Cardiac atrium
[2] = biological target: Beta-2 adrenergic receptor (Cavia porcellus) (UniProt Q8K4Z4)
Chain of Beta-2 adrenergic receptor (Cavia porcellus) (Q8K4Z4 whole entry, looked up): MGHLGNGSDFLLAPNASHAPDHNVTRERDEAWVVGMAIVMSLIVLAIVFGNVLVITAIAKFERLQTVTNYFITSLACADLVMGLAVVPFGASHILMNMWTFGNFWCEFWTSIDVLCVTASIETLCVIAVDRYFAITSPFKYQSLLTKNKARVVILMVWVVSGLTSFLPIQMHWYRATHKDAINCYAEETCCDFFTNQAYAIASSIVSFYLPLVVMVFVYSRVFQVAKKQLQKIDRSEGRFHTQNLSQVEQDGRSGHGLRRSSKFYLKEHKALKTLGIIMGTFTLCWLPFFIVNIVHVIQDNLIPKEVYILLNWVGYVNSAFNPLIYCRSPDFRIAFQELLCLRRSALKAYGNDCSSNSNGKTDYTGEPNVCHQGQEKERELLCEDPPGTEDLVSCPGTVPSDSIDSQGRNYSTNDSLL
Description: Beta-2 adrenergic receptor activity in guinea pig tracheal smooth muscle

Row | Compound | pD2 [1] | pD2 [2]
1 | COc1cc([C@@H](C)[C@@H]2NCCc3cc(O)c(O)cc32)cc(OC)c1OC | 7.35 | 8.39
2 | COc1cc([C@H](C)[C@@H]2NCCc3cc(O)c(O)cc32)cc(OC)c1OC | 6.67 | 7.15
3 | COc1cc(C[C@@H]2NCCc3cc(O)c(O)cc32)cc(OC)c1OC |  | 8.15
4 | COc1cc(C(C)(C)[C@@H]2NCCc3cc(O)c(O)cc32)cc(OC)c1OC |  | 4.47
